From US6566399B2, “Inhibitor of replicative senescence of human keratinocytes containing retinoic acid as active ingredients” (priority 2000, dated 2003)

Legend:
[1] = Acute oral toxicity test of rat; details: Sprague-Dawley, in vivo, 1 g/kg/15 ml
Method: To investigate the acute oral Toxicity test: Sprague-Dawley rats aged 6 weeks are used. Two rats per group were orally administered with all-trans retinoic acid and the 0.5% methyl cellulose solutions at a dose of 1 g/kg/15 ml one time. After administration, clinical symptoms, occurrence of death and the change of weight were observed. In addition, the rats were killed after administration, dissected, and celiac intestine and thoracic were examined with the unaided eye.

pRb protein in NHOK = test: pRb protein level in NHOK by Western blot; assay type: cell-based, human; details: 1 nM
Method: (§1) To investigate the expression levels of pRb and p16^INK4A proteins in NHOK and NHEK that are exposed to all trans retinoic acid, Western blot analysis (Min B. -M. et al., Int. J. Oncol., 1995, 7, 249-256) was performed using anti-mouse Rb (IFB) monoclonal antibody and anti-human p16 (C-20) polyclonal antibody (Santa Cruz Biotechnology). After probing with each of the respective antibodies, the membrane was stained with 1X Ponceau S stain for 10 minutes to reveal the total protein loading per lane.

[2] = test system: p16^INK4A protein in NHEK; test: p16^INK4A protein level in NHEK by Western blot; assay type: cell-based, human; details: 1 nM, PDL 13.6-17.1
Method: as §1

[3] = test system: normal human oral keratinocytes (NHOK); test: NHOK proliferation rate with all-trans retinoic acid (viable cell count by trypan blue exclusion); assay type: cell-based
Method: NHOK were prepared from human gingival tissue specimens (Min B. -M. et al., Int. J. Oncol., […], 7, 249-256). The tissue samples obtained from four healthy volunteers (ages ranged from 18 to 30 years) were thoroughly washed three times with calcium and magnesium-free Hanks' balanced salt solution (CMF-HBSS; GibcoBRL). In order to separate the epithelial tissue from the underlying mucosa, the tissue scruples were incubated in CMF-HBSS containing collagenase type II (1.0 mg/ml; Sigma Chemical Co.) and dispase grade II (2.4 mg/ml; Boeringer-Mannheim) for 90 min at 37° C. in 95% air and 5% carbon dioxide Primary NHOK were prepared from separated oral epithelial tissue (Min B. -M. et al., Int. J. Oncol. 1995, 7, 249-256), and cultured in keratinocyte basal medium containing 0.15 mM calcium and supplementary growth factor bullet kit (KGM; Clonetics Corp.) as described above. […]
To determine the effect of all-trans retinoic acid on cell proliferation, rapidly proliferating NHOK (PDL 18) were plated at 2×10^4 cells per well in a 24-well culture plate. […] The average number and standard deviation were calculated as the means of four independent experiments (FIG. 1a).

[4] = test system: telomerase activity of NHEK; test: Telomerase activity of NHEK by TRAP assay; assay type: cell-based, human; details: 1 nM
Method: (§2) To investigate telomerase activity of NHOK and NHEK exposed to all-trans retinoic acid, the telomerase activity was determined using a TPAP-eze telomerase detection kit (Oncor Inc.), which, is based on the TRAP assay.
(§3) More specifically, the frozen cell pellet in the above example 4 was dissolved in 200 μl of 1X CHAPS buffer (composition: 10 mM Tris-HCl pH 7.5, 1 mM MgCl2; 1 mM EDTA 0.5% 3[(3-cholamidopropyl)-dimethylammonium]-1-propanesulfonate, 10% glycerol, 5 mM β-mercaptoethanol and 0.1 mM benzamidine), incubated on ice for 30 minutes; and then centrifuged at 12,000 rpm for 30 minutes at 4° C. The separated supernatant was aliquoted and frozen on dry ice for TRAP assay.
(§4) For TRAP analysis, 2 μl of cell lysate containing 1.0 μg of cellular proteins were added to 48 μl of solution including 1X TRAP reaction buffer [composition: 20 mM Tris-HCl (pH 8.3), 1.5 mM MgCl2, 63 mM KCl 0.005% Tween 20, and 1 mM EGTA], 50 μM of each of four types of deoxynucleotide triphosphates, 0.05 μg of TS primer end-labeled with 20 μCi of [γ^32-P] ATP (3000 Ci/mmol; Amersham Corp.), 1 μl of primer mix, and Taq DNA polymerase (Perkin-Elmer) 0.4 unity. […] The PCR products were run in 12.5% nondenaturing polyacrylamide gel in 1X Tris-borate EDTA for 90 minutes at 60 W. After drying the gel, the radioactive signal was detected by autoradiography.

[5] = test system: p16^INK4A protein in NHOK; test: p16^INK4A protein level in NHOK by Western blot; assay type: cell-based, human; details: 1 nM, at any given PDL number
Method: as §1

[6] = test system: telomerase activity of NHOK; test: Telomerase activity of NHOK by TRAP assay; assay type: cell-based, human; details: 1 nM
Method: as §2, §3, §4

NHOK = test: Mitotic capacity of NHOK through continuous subculture (PDL, SA-β-gal); assay type: cell-based, human; details: 1 nM
Method: (§5) At the end of each stage, the population doubling level of NHOK was calculated by the following equation 1: […]
(§6) Wherein, N: PDL, Cf: total cell numbers obtained from the end of a passage, Ci: total cell numbers of attached cells at seeding.
(§7) NOOK (PDL 15) showing rapid proliferation was cultured with 2×10^5 cell per 60-mm petri dish. In addition, NHEK (PDL 11) was cultured in the same manner as in the NHOK. The cells were divided into two groups, which were cultured in KGM containing vehicle (0.001% DMSO) or 1 nM all-trans retinoic acid until the cells reached 70% confluency, and then subcultured until they reached the postmitotic stage of cell proliferation. All-trans retinoic acid was used by dissolving it in DMSO and then diluting with KGM so as to have a final DMSO concentration of 0.001%. The PDL accumulated at the last stage of each subculture and the senescent cell numbers in the cultured NHOK and NHEK, that is to say, the percentage (%) of positive cells by SA-β-gal staining were determined. The cell pellet obtained after washing with 1X PBS was frozen at −70° C. for TRAP and Western blot analysis (see, FIGS. 3a, 3b, 3c, 4a, 4b, and 4c).

NHEK = test: Mitotic capacity of NHEK through continuous subculture (PDL, SA-β-gal); assay type: cell-based, human; details: 1 nM
Method: as §5, §6, §7

senescent NHOK (PDL 22) = test: Senescence inhibition of senescent NHOK by SA-β-gal staining; assay type: cell-based, human; details: 1 nM, 21 days
Text: The senescent NHOK were positively stained by β-galactosidase (Dimri G. D. et al., Proc. Nat. Acad. Sci., 1995, 92, 9363-9367). Using such properties, the inhibition against senescence of all-trans retinoic acid-treated NHOK was examined. […]
To ensure a representative count, each cell culture was divided into four equal parts and minimum two areas per each part were photographed with Olympus IMT-2 phase-contrast microscope, thus counting the cells. As the result, minimum 500 or more cells per each part were counted.
After the senescent NHOK (PDL 22) were exposed to 1, 10, or 100 nM retinoic acid for 21 days the percentage (%) of senescent cells was obtained from SA-β-gal positive cell (%) versus total cells. The average percentage (%) and standard deviation were calculated from three independent experiments.

[7] = test system: normal human epidermal keratinocytes (NHEK); test: NHEK proliferation rate with all-trans retinoic acid (viable cell count by trypan blue exclusion); assay type: cell-based
Method: NHEK was prepared in the same manner as in the above example 1, except that tissue samples were taken from human foreskin tissue specimens of two healthy volunteers (ages ranged from 1 to 3 years).
To determine the effect of all-trans retinoic acid on cell proliferation, rapidly proliferating NHEK (PDL 11) were plated at 2×10^4 cell per well in a 24-well plate and cultured until their cell density reached 40% (24 hours after the plating). The cultured cells were exposed to all-trans retinoic acid containing various concentrations, 1 nM, 10 nM, 100 nM, 500 nM, 1 μM, and 5 μM and harvested after 2 or 4 days of incubation to count the number of viable cells by trypan blue exclusion. The average number and standard deviation was calculated as above same procedure (FIG. 1b).

For `CC1=C(/C=C/C(C)=C/C=C/C(C)=C/C(=O)O)C(C)(C)CCC1` [all-trans retinoic acid], the LD50 [1] was > 2000 mg/kg, the “pRb protein level compared to the vehicle control” value (pRb protein in NHOK; according to the increase of PDL (high PDL)) was “higher levels” and the “amount of pRb protein” value (pRb protein in NHOK; early culture at PDL 18) was “extremely low”. For the same molecule, the “pRb protein level compared to the vehicle control of corresponding PDL” value (pRb protein in NHOK; low PDL) was “much lower”, the “intracellular p16^INK4A protein level compared to the vehicle control” value [2] was “much lower” and the “cell proliferation of NHOK, best of the test concentrations” value ([3]; 1 nM, among test concentrations 1 nM to 10 μM) was “maximally enhanced”. For the same molecule, the “cell proliferation of NHOK compared to the vehicle control” value ([3]; NHOK (PDL 18), 1 or 10 nM, 2 or 4 days of incubation) was “noticeably increased”, the telomerase activity ([4]; PDL 24.3 and 25.1 (replicative senescence)) was “hardly or almost undetected” and the telomerase activity ([4]; according to the increase of PDL) was “maintained”. For the same molecule, the “intracellular p16^INK4A protein level compared to the vehicle control” value [5] was “significantly lower”, the telomerase activity ([6]; PDL 27 and 28 (replicative senescence)) was “almost undetectable” and the telomerase activity ([6]; at high PDL numbers) was “maintained or slightly increased”. For the same molecule, the “upper end of the log phase of cell proliferation (PDL)” value (NHOK; serial subculture from PDL 15, vehicle: until PDL 20) was 26 PDL, the “PDL at which cells ceased to proliferate” value (NHOK; serial subculture, vehicle: PDL 22) was 28 PDL and the “upper end of the log phase of cell proliferation (PDL)” value (NHEK; serial subculture from PDL 10.8, vehicle: until PDL 19.8) was 24.3 PDL. For the same molecule, the “PDL up to which cells proliferated (no further proliferation)” value (NHEK; serial subculture, vehicle: PDL 20.5) was 25.1 PDL, the “replicative senescence (SA-β-gal positive cells) compared to the vehicle control” value (senescent NHOK (PDL 22)) was “significantly inhibited” and the “cell proliferation of NHEK, best of the test concentrations” value ([7]; 1 nM, among test concentrations 1 nM to 5 μM) was “maximum cell proliferation”. The “growth of NHEK” value ([7]; 1 μM or higher) was “restrained in their growth” and the “cell proliferation of NHEK compared to the vehicle control” value ([7]; NHEK (PDL 11), 1 nM, 2 or 4 days of incubation) was “notably increased”.
